Data on 34 molecules can be found in US20060063930A1, “Compositions and methods comprising proteinase activated receptor antagonists” (priority 2004, published 2006).

This assay relates to PAR-2. As to the kind of experiment: Inhibition of PAR-2 activating peptide (AP2) calcium signaling in cells pretreated with antagonist. Details: key to PAR-2 AP2 Signaling Treated/Control (T/C) / PAR-2 AP2 Signaling Treated/Control: AUC of calcium mobilization, treated ÷ control wells. The format is cell-based, human. The following applies: mimetic antagonists; AUC of calcium mobilization treated/control; initially screened at 1 mM compound. As to the method: In order to assess the potential of peptides and molecules selected above to block PAR-2 signaling, cells were pretreated with potential antagonist peptides for a predetermined amount of time and were subsequently treated with various GPCR agonists. Confluent Lewis lung carcinoma (LLC) cells were loaded for 30-60 minutes with the fluorescent dye Fluo-4. Final concentration 4 uM Fluo-4, 0.02% pluronic acid in physiological buffer. Cells were then washed with assay buffer, (HBSS containing 1 mM CaCl2, 1 mM MgSO4, and 2.5 mM probenecid). Cells were stimulated with various doses of PAR-2 activating peptide, PAR-1 activating peptide or ATP. Fluorescence was monitored using a Wallac 1470 fluorescent plate reader. (See Al-ani et. al Journal of Pharmacology and Experimental Therapeutics 290:2, 753-760). Additional compound screening was performed using U87-MG human glioma cells. In this assay cells were labeled with FLIPR Calcium 3 dye (Component A), which was dissolved in 10 mls of Assay Buffer without Probenecid. Loading buffer was prepared by diluting Component A with an additional 90 mls of Assay Buffer without Probenecid, giving a total volume of a 100 ml. For plate loading, 11 mls of FLIPR Calcium 3 dye (Component A) is placed into a 15 ml conical tube+110 μl of 250 mM Probenecid, at a final in-well working volume of 2.5 mM. Finally, 50 μl of Calcium 3 dye was added wells containing 100 μl media, and incubated 1 hr, 37° C., 5% CO2. Calcium signaling was then measured using a Flexstation II (Molecular Devices) following manufacturer's instructions.
Potential antagonist compounds were initially screened at 1 mM compound concentration. Those compounds with activity were then subjected to additional confirmatory testing. Activity is reported as treated/controlled (T/C) where the area under the curve (AUC) of calcium mobilization plots in treated wells is divided by the AUC of calcium mobilization plots in control wells to generate a measure of inhibition.

Where a name gives a salt, the structure may show the parent alone.

On to `Cl.NC1CCC(C(=O)Nc2ccc(NC(=O)CC3CCCCC3)cc2)C1` (stereo in doubt) [ENMD-1768, (1R,3S)-N-(4-(2-cyclohexylacetamido)phenyl)-3-aminocyclopentanecarboxamide hydrochloride], for which the “PAR-2 AP2 Signaling Treated/Control” value was found to be 0.10. As for `CCC(C)C(=O)N1CCN(C(=O)CCCCCN)CC1` (stereo not shown) [ENMD-1033, N′-[S-2-methylbutanoyl]-N^4-[6′-aminohexanoyl]-piperazine], the figure is 0.28; as for `CC[C@@H](C)C(=O)N1CCN(C(=O)CCCCCN)CC1` [ENMD-1034, N^1-[R-2-methylbutanoyl]-N^4-[6′-aminohexanoyl]-piperazine], 0.39; as for `CC(C)C(=O)N1CCN(C(=O)CCCCCN)CC1` [ENMD-1035, N′-[2′-methylpropanoyl]-N^4-[6′-aminohexanoyl]-piperazine], 0.32. The result for `CCCC(=O)N1CCN(C(=O)CCCCCN)CC1` [ENMD-1036, N^1-butanoyl-N-4-[6′-aminohexanoyl]-piperazine] reads 0.55. The result for `CCC(=O)N1CCN(C(=O)CCCCCN)CC1` [ENMD-1037, N′-propanoyl-N-4-[6′-aminohexanoyl]-piperazine] reads 0.55; that for `CC(C)CCCC(=O)N1CCN(C(=O)CCCCCN)CC1` [ENMD-1038, N^1-[5′-methylhexanoyl]-N^4-[6′-aminohexanoyl]-piperazine], 0.35; that for `CCCCCC(=O)N1CCN(C(=O)CCCCCN)CC1` [ENMD-1039, N^1-hexanoyl-N^4-[6-aminohexanoyl]-piperazine], 1.34. Turning to `CCCCC(=O)N1CCN(C(=O)CCCCCN)CC1` [ENMD-1040, N^1-pentanoyl-N-4-[6′-aminohexanoyl]-piperazine], the “PAR-2 AP2 Signaling Treated/Control” value is reported as 1.04. As for `CC(C)CCC(=O)N1CCN(C(=O)CCCCCN)CC1` [ENMD-1041, N^1-[4′-methylpentanoyl]-N^4-[6′-aminohexanoyl]-piperazine], the figure is 0.17. Regarding `CC(C)CC(=O)N1CCN(C(=O)Cc2ccc(N)cc2)CC1` [ENMD-1065, N^1-3-methylbutyryl-N^4-[2-(4-aminophenyl)-ethanoyl]-piperazine], the “PAR-2 AP2 Signaling Treated/Control” value is reported as 0.34. The result for `CC(C)CC(=O)N1CCN(C(=O)Cc2cnc[nH]2)CC1` [ENMD-1066, 1-(4-(2-(1H-imidazol-4-yl)acetyl)piperazin 1-yl)-3-methylbutan-1-amide hydrochloride] reads 0.20; that for `CC(C)CC(=O)N1CCN(C(=O)CCCCCNC(=N)N)CC1` [ENMD-1067, 4-(3-methylbutanoyl)piperazin-1-(5′-carbamoyl-pentylguanidine)], 0.77; that for `O=C(Cc1ccccn1)N1CCN(C(=O)CC2CCCCC2)CC1` [ENMD-1069, 1-(4-(2-cyclohexylacetyl)piperazin-1-yl)-2-(pyridin-2-yl)-acetaldehyde], 0.94. The result for `Nc1ccc(CC(=O)N2CCN(C(=O)CC3CCCCC3)CC2)cc1` [ENMD-1070, N^1-2-cyclohexylethanoyl-N^4-[2-(4-aminophenyl)-ethanoyl]-piperazine] reads 0.05; that for `O=C(Cc1cnc[nH]1)N1CCN(C(=O)CC2CCCCC2)CC1` [ENMD-1071, 1-(4-(2-(1H-imidazol-4-yl)acetyl)piperazin-1-yl)-1-cyclohexyl-acetamide hydrochloride], 0.16. The result for `N=C(N)NCCCCCC(=O)N1CCN(C(=O)CC2CCCCC2)CC1` [ENMD-1072, 4-(1-cyclohexylacetyl)piperazin-1-(5′-carbamoyl-pentylguanidine)] reads 0.56; that for `NCCCCCC(=O)N1CCN(C(=O)CC2CCCCC2)CC1` [ENMD-1073, N′-(2-cyclohexylethanoyl)-N^4-(6-aminohexanoyl)piperazine], 0.56.

In the case of `O=C(Cc1cccnc1)N1CCN(C(=O)CC2CCCCC2)CC1` [ENMD-1074, 1-(4-(2-cyclohexylacetyl)piperazin-1-yl)-2-(pyridin-3-yl)-acetaldehyde], the “PAR-2 AP2 Signaling Treated/Control” value is on record as 0.35.

As for `Nc1ccc(CC(=O)N2CCN(C(=O)Cc3ccccc3)CC2)cc1` [ENMD-1075, N^1-2-phenylethanoyl-N^4-[2-(4-aminophenyl)-ethanoyl]-piperazine], the “PAR-2 AP2 Signaling Treated/Control” value amounted to 0.71. Turning to `O=C(Cc1ccccc1)N1CCN(C(=O)Cc2cnc[nH]2)CC1` [ENMD-1076, 1-(4-(2-(1H-imidazol-4-yl)acetyl)piperazin-1-yl)-1-benzyl-amide], the “PAR-2 AP2 Signaling Treated/Control” value is 0.14. As for `N=C(N)NCCCCCC(=O)N1CCN(C(=O)Cc2ccccc2)CC1` [ENMD-1077, 4-phenylacetoyl-piperazin-1-(5′-carbamoyl-pentylguanidine)], the figure is 0.80; as for `NCCCCCC(=O)N1CCN(C(=O)Cc2ccccc2)CC1` [ENMD-1078, N^1-(2-phenylethanoyl)-N^4-(6-aminohexanoyl)piperazine], 0.42; as for `O=C(Cc1ccncc1)N1CCN(C(=O)CC2CCCCC2)CC1` [ENMD-1079, 1-(4-(2-cyclohexylacetyl)piperazin-1-yl)-2-(pyridin-4-yl)-acetaldehyde], 0.90. As for `CC(C)CC(=O)Nc1ccc(NC(=O)CCCCCN)cc1` [ENMD-1391, N-(4-(3-methylbutanamido)phenyl)-6-aminohexanamide], the figure is 0.01; as for `Br.CC(C)CC(=O)NCCNC(=O)CCCCCN` [ENMD-1393, N-(2-(3-methylbutanamido)ethyl)-6-aminohexan-amide hydrobromide], 0.81. As for `CC(C)CC(=O)Nc1ccc(NC(=O)CCCN)cc1` [ENMD-1397, N-(4-(3-methylbutanamido)phenyl)-4-aminobutyl-amide hydrobromide], the figure is 0.15. As to `COC(=O)CCCCC(=O)N1CCN(C(=O)CC(C)C)CC1` [ENMD-1402, Methyl 6-(4-(3-methylbutanoyl)piperazin-1-yl)-6-oxohexanoate], the “PAR-2 AP2 Signaling Treated/Control” value is given as 0.64. The result for `CC(C)COc1ccc(C(=O)NCCCCN)cc1` [ENMD-1405, N-(4-aminobutyl)-4-isobutoxy-benzamide] reads 0.13; that for `NCCCCNC(=O)c1ccc(OCC2CCCCC2)cc1` [ENMD-1406, N-(4-aminobutyl)-4-(cyclohexylmethoxy)-benzamide], 0.24; that for `CC(C)COc1ccc(C(=O)NCCCN)cc1` [ENMD-1408, N-(3-aminopropyl)-4-isobutoxy-benzamide], 0.35. The result for `NCCCNC(=O)c1ccc(OCC2CCCCC2)cc1` [ENMD-1409, N-(3-aminopropyl)-4-(cyclohexylmethoxy)-benzamide] reads 0.45. As for `CC(C)CNC(=O)c1ccc(OCCCN)cc1` [ENMD-1410, 4-(3-aminopropoxy)-N-isobutyl-benzamide], the figure is 0.55; as for `NCCCOc1ccc(C(=O)NCC2CCCCC2)cc1` [ENMD-1411, 4-(3-aminopropoxy)-N-(cyclohexylmethyl)-benzamide], 0.43.
